Experimental data as given in patent publication US8455397B2, “Penoxsulam as a turfgrass, vineyard and orchard floor herbicide” (Dow AgroSciences, LLC, priority 2005, dated 2013).

Experiments:
[1] = tested on: vine and orchard floor weeds; test: Vine and orchard floor weed control (general statement); format: in vivo; conditions: APESV, AMARE, POROL, SETFA, ECHCG, ECHCO, SSYIR, SINAR, EPHHE, EROCI, MALNE, MALPA, SONOL, SENVU
[2] = tested on: annual sowthistle (SONOL); test: Pre-emergence orchard floor weeds, greenhouse study; format: in vivo, Sonchus oleraceus; conditions: 28 Days After Application
Experimental: (§1) Greenhouse studies were conducted by seeding species in a loam soil and applying the herbicides to the soil surface using a Cornwall 5 milliliter glass syringe fitted with a TeeJet TN-3 nozzle on an area basis Immediately following herbicide application the pots were irrigated over the top to move the herbicides into the seeding zone. Pots were kept well irrigated throughout the trial. A percent visual weed control assessment was taken 4 weeks after application. Control was determined visually by comparing treated and untreated pots and scored on a 0 to 100 percent scale where 0 corresponds to no control and 100 corresponds to complete kill, or no emergence.

turfgrass = conditions: in vivo
[3] = tested on: broadleaf plantain (PLAMA); test: Postemergent granule herbicides, turfgrass field studies; format: in vivo, Plantago major L.; conditions: Table I, 2 sites, Penoxsulam 140 gai/Ha, Scotts Plus 2 1682+841 gae/Ha, Trimec 1121+516+112 gae/Ha
Experimental: (§2) Field studies were conducted in established turfgrass sites containing a natural population of target broadleaf weeds. Replicated trials, containing a minimum of three replications and having individual plots ranging in size from 25 to 50 ft. sq (2.3 to 4.6 square meters), were initiated in the late spring when turf and weeds were actively growing. Granule treatments were uniformly applied to individual plots using a common hand-shaker method. Applications were made in the early morning when dew was present. Natural rainfall and supplemental irrigation were used to maintain healthy turf and active weed growth throughout the study period. Control of each weed species in the study site was made at 2, 4 and 8 weeks after treatment. Control was determined visually by comparing treated and untreated weeds and scored on a 0 to 100 percent scale where 0 corresponds to no control and 100 corresponds to complete kill.

redstem filaree (EROCI) = test: Pre-emergence orchard floor weeds, greenhouse study; format: in vivo, Erodivam cicutarium; conditions: 28 Days After Application
Experimental: as §1

sun spurge (EPHHE) = test: as above; format: in vivo, Euphorbia helioscopia; conditions: 28 Days After Application
Experimental: as §1

[4] = tested on: Virginia buttonweed (DIQVI); test: Postemergent granule herbicides, turfgrass field studies; format: in vivo, Diodia virginiana L.; conditions: Table III, 1 site
Experimental: as §2

[5] = tested on: broadleaf weeds and sedges; test: Weed control in turfgrass and vine and orchard floors (general statement); format: in vivo; conditions: TRFRE, PLALA, TAROF, PLAMA, GLEHE, LESST, HYDSS, DIQVI, BELPE, CYPES
yellow nutsedge (CYPES) = test: Pre-emergence weed nursery field study; format: in vivo, Cypres esculentus L.; conditions: weed nursery in the field, 27 Days After Application
Experimental: Field studies were conducted in a non-fumigated weed nursery trial. Weed species were planted in single strips with a row planter at 36 centimeter spacing. Plot size was 3.05×9.2 meters, 4 replicate plots per treatment. Weed species were seeded at appropriate depths and later the same day pre-emergent applications were made to the soil surface. Liquid applications were made using a backpack sprayer calibrated to deliver 187 liters per hectare (L/ha). Applications were made in Fresno, Calif. in June. Sprinkler irrigation was applied at regular intervals throughout study period. Control of each weed species in the study site was made 4 weeks after treatment. Control was determined visually by comparing treated and untreated weeds and scored on a 0 to 100 percent scale where 0 corresponds to no control and 100 corresponds to complete kill or no emergence.

dandelion (TAROF) = test: Granule carrier/particle size, post emergence greenhouse study; format: in vivo, Taraxacum officinale; conditions: postemergent greenhouse
Experimental: Greenhouse and field studies evaluated the effect of two granule carriers and two particles sizes on the postemergent broadleaf activity of penoxsulam. The two carriers were a 46-0-0 and 28-4-12 fertilizer blend and the particle sizes averaged 0.75 mm and 2.15 mm.
Greenhouse studies were applied both post and pre-emergence to broadleaf weeds and sedge reared from seed or nutlet in 12.7″ (32.25 cm) by 8.8″ (22.35 cm) flats of a loam soil. Particle size and carrier were evaluated post emergence, carrier comparisons with the smaller particle size of 0.75 was evaluated pre-emergence. Stage of growth of species at post emergence application: PLAMA and TAROF in the 3 to 5 leaf stage, TRFRE in the 3rd tri-foliate stage and CYPES in the 3 to 4 leaf stage. Post emergence trial design was a replicated block, one species per flat, 3 replicate flats per treatment. Granule treatments were uniformly applied to individual flats on an area basis using a common hand-shaker method. Post emergence applications were made to the flat covering both soil and misted foliage. Trial was sub-irrigated daily, and watered over the top 1 time per week starting 7 days after application to simulate a natural rainfall event. Active weed growth was maintained throughout the study period. Weed control of each species in the post emergence study was assessed at 2, 3 and 4 weeks after treatment. Pre-emergence trial design was 2 species per flat, 4 replicate flats, block design. Pre-emergence applications were made to the soil surface using a common hand shaker method on an area basis. Overhead irrigation was maintained throughout the trial. Weed control of each species in the pre-emergence study was assessed at 2, 3, 4 and 5 weeks after application. Control was determined visually by comparing treated and untreated flats and scored on a 0 to 100 percent scale where 0 corresponds to no control and 100 corresponds to complete kill.

## COc1cnc(OC)n2nc(NS(=O)(=O)c3c(OCC(F)F)cccc3C(F)(F)F)nc12 [Penoxsulam, 2-(2,2-difluoroethoxy)-N-(5,8-dimethoxy[1,2,4]triazolo[1,5-c]-pyrimidin-2-yl)-6-(trifluoromethyl)benzenesulfonamide]
[1]
  effectiveness in controlling vine and orchard floor weeds: effective
[2]; 8.8 gai/Ha
  Pre-emergent Percent Mean Control: 72%
[2]; 17.5 gai/Ha
  Pre-emergent Percent Mean Control: 78%
[2]; 35 gai/Ha
  Pre-emergent Percent Mean Control: 82%
[2]; 70 gai/Ha
  Pre-emergent Percent Mean Control: 87%
turfgrass
  damage to mature, well-established turfgrass: acceptable or no damage
[3]; 4 Weeks After Treatment
  Mean Percent Weed Control: 81%
[3]; 8 Weeks After Treatment
  Mean Percent Weed Control: 87%
Redstem filaree (EROCI); 8.8 gai/Ha
  Pre-emergent Percent Mean Control: 79%
Redstem filaree (EROCI); 17.5 gai/Ha
  Pre-emergent Percent Mean Control: 97%
Redstem filaree (EROCI); 35 gai/Ha
  Pre-emergent Percent Mean Control: 100%
Redstem filaree (EROCI); 70 gai/Ha
  Pre-emergent Percent Mean Control: 100%
Sun spurge (EPHHE); 8.8 gai/Ha
  Pre-emergent Percent Mean Control: 87%
Sun spurge (EPHHE); 17.5 gai/Ha
  Pre-emergent Percent Mean Control: 97%
Sun spurge (EPHHE); 35 gai/Ha
  Pre-emergent Percent Mean Control: 98%
Sun spurge (EPHHE); 70 gai/Ha
  Pre-emergent Percent Mean Control: 100%
[4]; 4 Weeks After Treatment, 22.4 gai/Ha
  Mean Percent Weed Control: 67%
[4]; 4 Weeks After Treatment, 44.9 gai/Ha
  Mean Percent Weed Control: 76%
[4]; 4 Weeks After Treatment, 67.3 gai/Ha
  Mean Percent Weed Control: 93%
[4]; 4 Weeks After Treatment, 100 gai/Ha
  Mean Percent Weed Control: 92%
[4]; 8 Weeks After Treatment, 22.4 gai/Ha
  Mean Percent Weed Control: 48%
[4]; 8 Weeks After Treatment, 44.9 gai/Ha
  Mean Percent Weed Control: 63%
[4]; 8 Weeks After Treatment, 67.3 gai/Ha
  Mean Percent Weed Control: 87%
[4]; 8 Weeks After Treatment, 100 gai/Ha
  Mean Percent Weed Control: 78%
[5]
  effectiveness against most important weeds: particularly effective
Yellow nutsedge (CYPES); 8.8 gai/Ha
  Pre-emergent Percent Mean Control: 69%
Yellow nutsedge (CYPES); 17.5 gai/Ha
  Pre-emergent Percent Mean Control: 81%
Yellow nutsedge (CYPES); 35 gai/Ha
  Pre-emergent Percent Mean Control: 88%
Yellow nutsedge (CYPES); 70 gai/Ha
  Pre-emergent Percent Mean Control: 94%
Dandelion (TAROF); carrier 28-4-12, particle size 0.75 mm, 5.6 gai/Ha
  Percent Weed Control 27-30 DAA: 50%
Dandelion (TAROF); carrier 28-4-12, particle size 0.75 mm, 11.2 gai/Ha
  Percent Weed Control 27-30 DAA: 88%
Dandelion (TAROF); carrier 28-4-12, particle size 0.75 mm, 22.4 gai/Ha
  Percent Weed Control 27-30 DAA: 97%
Dandelion (TAROF); carrier 28-4-12, particle size 2.15 mm, 5.6 gai/Ha
  Percent Weed Control 27-30 DAA: 23%
Dandelion (TAROF); carrier 28-4-12, particle size 2.15 mm, 11.2 gai/Ha
  Percent Weed Control 27-30 DAA: 60%
Dandelion (TAROF); carrier 28-4-12, particle size 2.15 mm, 22.4 gai/Ha
  Percent Weed Control 27-30 DAA: 68%
Dandelion (TAROF); carrier 46-0-0, particle size 0.75 mm, 5.6 gai/Ha
  Percent Weed Control 27-30 DAA: 55%
Dandelion (TAROF); carrier 46-0-0, particle size 0.75 mm, 11.2 gai/Ha
  Percent Weed Control 27-30 DAA: 67%
Dandelion (TAROF); carrier 46-0-0, particle size 0.75 mm, 22.4 gai/Ha
  Percent Weed Control 27-30 DAA: 98%
Dandelion (TAROF); carrier 46-0-0, particle size 2.15 mm, 5.6 gai/Ha
  Percent Weed Control 27-30 DAA: 23%
Dandelion (TAROF); carrier 46-0-0, particle size 2.15 mm, 11.2 gai/Ha
  Percent Weed Control 27-30 DAA: 48%
Dandelion (TAROF); carrier 46-0-0, particle size 2.15 mm, 22.4 gai/Ha
  Percent Weed Control 27-30 DAA: 60%
